Data as given in patent publication US20080194701A1, “Bifunctional Enzyme with Y-Glutamylcysteine Synthetase and Glutathione Synthetase Activity and Uses Thereof” (priority 2004, published 2008).

Columns and labels:
S. agalactiae γ-GCS-GS = molecular target: T1, S. agalactiae γ-GCS-GS (Streptococcus agalactiae serotype V, UniProt Q8DXM9); experiment: GS activity assay based on ADP formation, S. agalactiae γ-GCS-GS; details: GS activity
T1 sequence (Q8DXM9 1-750): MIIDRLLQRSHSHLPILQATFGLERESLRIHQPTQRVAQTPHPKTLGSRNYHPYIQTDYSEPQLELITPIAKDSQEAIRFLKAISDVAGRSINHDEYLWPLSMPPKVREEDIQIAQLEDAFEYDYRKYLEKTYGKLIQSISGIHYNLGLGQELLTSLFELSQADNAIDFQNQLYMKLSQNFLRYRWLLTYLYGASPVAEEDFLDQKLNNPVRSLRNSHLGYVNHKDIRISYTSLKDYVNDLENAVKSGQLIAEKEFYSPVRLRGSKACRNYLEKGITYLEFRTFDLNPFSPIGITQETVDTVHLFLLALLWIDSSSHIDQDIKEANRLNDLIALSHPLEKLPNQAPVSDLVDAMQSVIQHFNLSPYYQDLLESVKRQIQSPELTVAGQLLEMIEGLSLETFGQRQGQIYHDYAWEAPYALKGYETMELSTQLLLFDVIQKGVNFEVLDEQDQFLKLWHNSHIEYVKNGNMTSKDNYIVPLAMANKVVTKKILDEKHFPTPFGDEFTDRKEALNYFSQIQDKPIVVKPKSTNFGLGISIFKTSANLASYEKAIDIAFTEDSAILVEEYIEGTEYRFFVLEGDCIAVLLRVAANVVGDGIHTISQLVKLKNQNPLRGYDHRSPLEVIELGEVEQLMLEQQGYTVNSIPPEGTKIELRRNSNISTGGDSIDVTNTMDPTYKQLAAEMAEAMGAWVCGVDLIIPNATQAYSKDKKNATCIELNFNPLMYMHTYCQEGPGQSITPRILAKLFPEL
Procedure: Transformed cells were grown, induced, and harvested by centrifugation, and were then broken using a French pressure cell. […] The column was equilibrated with 50 mM Tris HCl buffer, pH 7.4, containing 5 mM L-glutamate, 5 mM MgCl2, and 5 mM β-mercaptoethanol, and the high-speed supernatant was loaded. After washing the column with equilibration buffer to remove proteins lacking a His-tag, the expressed His8-tagged protein was eluted using the same buffer supplemented with 200 mM imidazole. Amount of γ-GCS activity was determined as described in Example 2. […] It was observed that the purified enzyme catalyzed both the γ-GCS and the GS reactions. Since the GS-specific activity was higher than the specific activity for any known GS enzyme, it was apparent that the expressed 85 kDa S. agalactiae protein (rather than a trace impurity), accounted for the observed GS activity. Using the pREP4 auxiliary plasmid instead of the pRARE plasmid gave somewhat lower yields (325 mg total protein vs. 442 mg protein using pRARE) but the specific activities of the γ-GCS activity (870 units/mg) and GS activities (1143 units/mg) were similar.
Results for E. coli GS are from H. Gushima et al. J. Appl. Biochem. 5, 210-218 (1983). Results for rat GS are from J. L. Luo et al. Biochem. Biophys. Res. Commun. 275, 577-581 (2000). Results for human GS are from R. Njalsson et al. Biochem. Biophys. Res. Commun. 289, 80-84 (2001) and R. Njalsson et al. Biochem. J. 349, 275-279 (2000).

Rat GS = molecular target: T2, Rat GS (Rattus norvegicus, UniProt P46413); details: cited from earlier work
T2 sequence (P46413 1-474): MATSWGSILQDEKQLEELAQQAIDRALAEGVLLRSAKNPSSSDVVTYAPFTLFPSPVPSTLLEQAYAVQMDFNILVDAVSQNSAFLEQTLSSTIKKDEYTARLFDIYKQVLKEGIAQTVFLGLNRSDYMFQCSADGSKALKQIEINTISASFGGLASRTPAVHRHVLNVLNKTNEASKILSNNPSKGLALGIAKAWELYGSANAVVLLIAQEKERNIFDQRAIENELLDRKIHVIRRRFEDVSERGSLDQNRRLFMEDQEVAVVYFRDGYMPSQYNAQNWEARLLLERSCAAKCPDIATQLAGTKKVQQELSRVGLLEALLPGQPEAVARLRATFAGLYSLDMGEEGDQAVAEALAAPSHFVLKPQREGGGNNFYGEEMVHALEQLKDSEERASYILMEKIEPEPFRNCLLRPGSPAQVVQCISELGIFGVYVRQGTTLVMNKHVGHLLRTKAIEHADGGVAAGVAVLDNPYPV

S. mutans γ-GCS-GS = S. mutans γ-GCS-GS (Streptococcus mutans serotype c, UniProt Q8DW15); experiment: γ-GCS activity of S. mutans γ-GCS-GS; details: substrate Km, γ-GCS activity
From the text: 3′ and 5′ […] 3′ and introduced unique Bgl II and Hind III sites (underlined), respectively.

Chain of S. mutans γ-GCS-GS (Q8DW15 whole entry): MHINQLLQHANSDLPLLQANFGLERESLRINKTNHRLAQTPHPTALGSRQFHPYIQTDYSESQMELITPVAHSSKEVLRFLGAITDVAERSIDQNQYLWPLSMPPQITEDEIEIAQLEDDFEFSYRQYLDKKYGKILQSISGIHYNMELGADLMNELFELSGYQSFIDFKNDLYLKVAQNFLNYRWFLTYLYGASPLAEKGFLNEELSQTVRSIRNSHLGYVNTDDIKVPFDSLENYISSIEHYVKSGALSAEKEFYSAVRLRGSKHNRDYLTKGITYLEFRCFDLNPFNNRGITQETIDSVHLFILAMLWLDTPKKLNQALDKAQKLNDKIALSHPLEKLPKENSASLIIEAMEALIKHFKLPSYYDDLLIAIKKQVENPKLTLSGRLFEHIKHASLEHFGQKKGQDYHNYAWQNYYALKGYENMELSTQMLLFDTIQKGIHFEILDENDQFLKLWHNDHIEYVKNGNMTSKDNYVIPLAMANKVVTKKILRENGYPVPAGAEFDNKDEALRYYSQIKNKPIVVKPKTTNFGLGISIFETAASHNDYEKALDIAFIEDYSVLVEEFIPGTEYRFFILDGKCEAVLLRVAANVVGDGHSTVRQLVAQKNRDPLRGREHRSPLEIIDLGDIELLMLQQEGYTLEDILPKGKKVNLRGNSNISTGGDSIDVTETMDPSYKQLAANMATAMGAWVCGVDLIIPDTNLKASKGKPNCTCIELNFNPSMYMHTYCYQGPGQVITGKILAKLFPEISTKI

Nc1ncnc2c1ncn2[C@@H]1O[C@H](COP(=O)(O)OP(=O)(O)OP(=O)(O)O)[C@@H](O)[C@H]1O [ATP]
Vmax (S. agalactiae γ-GCS-GS; unit = 1 μmol product per hour): 1662 ± 77 units/mg | Km (S. agalactiae γ-GCS-GS; substrate Km): 420 ± 49 µM | Vmax (Rat GS): 678 units/mg | Km (Rat GS; substrate Km): 37 µM | Km (S. mutans γ-GCS-GS): 288 ± 105 µM
